Entries after “also recorded” stand apart in the source; their conditions may differ.
Key:
[1] = tested on: chicken embryos; assay: Chicken embryo development / teratogenicity; assay type: in vivo, white leghorn chicken; details: in words; applied at HH stage 17-18
Method: Chicken Embryology: Fertilized white leghorn chicken embryos were incubated at 38° C. and staged according to Hamburger and Hamilton (HH) stages of development (1951). Embryos were tested at HH stage 17-18 (day 2.5). Following membrane removal, test compounds or vehicle control solutions were applied globally over the embryo. The eggs were sealed and the development of the embryos was monitored up to HH stage 30 (E9).
Compounds of interest were screened in chicken embryos (FIGS. 7I-7P).
Concentrations used in the WT zebrafish and chicken embryo assays to assess for teratogenesis, were equal to or higher than those utilized in the fil1:EGFP and mpo:GFP zebrafish assays

[2] = tested on: mpo:GFP zebrafish embryos (neutrophil migration to the wound site); assay: mpo:GFP zebrafish fin-clip neutrophil migration (inflammation) assay; assay type: in vivo; design: mpo:GFP inflammation n (survived/tested): concentration or dose not given beside the values; details: for minimal effective concentration: Danio rerio, Neutrophil, lowest concentration producing an effect, compounds not producing an effect shown at the highest evaluated concentration; for mpo:GFP inflammation n (survived/tested): embryos survived/tested at the concentration given
Summary of the method: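 Tg(mpo::EGFP) larvae tail-fin clipped (dorsal third removed) at 72 hpf, then immersed in compound or vehicle. Neutrophils migrating to the wound site counted from images 24 h later; at least 50% reduction scored as anti-inflammatory. Viability and morphology also assessed.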

[3] = tested on: fli1:EGFP zebrafish embryos (intersegmental vessel growth); assay: fli1:EGFP zebrafish embryo angiogenesis assay; assay type: in vivo; design: fli1:EGFP angiogenesis n (survived/tested): concentration or dose not given beside the values; details: for minimal effective concentration: Danio rerio, lowest concentration producing an effect, compounds not producing an effect shown at the highest evaluated concentration; for fli1:EGFP angiogenesis n (survived/tested): embryos alive after 24 hours of exposure
Summary of the method: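 fli1:EGFP embryos grown 24 hpf, dechorionated and exposed to compound or vehicle over a range of concentrations for up to 24 h, with CPS49 as positive control. Imaged at 48 hpf for intersegmental vessel formation and growth; survival after 24 h exposure recorded, and values reflect the lowest concentration producing an effect.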

[4] = tested on: TNF-α protein; assay: TNF-α protein level (ELISA) in LPS-challenged RAW 264.7 cells; assay type: cell-based, mouse; design: key: NS=not significant; a “+” sign=anti-inflammatory or increased cell numbers; a “−” sign=cell toxicity or pro-inflammatory; details: LPS 30 or 60 ng/mL, 24 h
Summary of the method: (§1)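 RAW 264.7 cells pretreated 1 h with compound in DMSO vehicle, then challenged with LPS (30 or 60 ng/mL) for 24 h at 37° C. Conditioned-media nitrite by Griess (520 nm, sodium nitrite standard curve, 1.5 μM cutoff) in μM; mouse TNF-α by ELISA as pg/ml or % change from control.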

[5] = tested on: nitrite levels in the culture media; assay: Nitrite level (Griess Reagent System) in LPS-challenged RAW 264.7 cells; assay type: cell-based, mouse; design: key: NS=not significant; a “+” sign=anti-inflammatory or increased cell numbers; a “−” sign=cell toxicity or pro-inflammatory; details: LPS 30 or 60 ng/mL, 24 h
Summary of the method: as §1

[6] = tested on: RAW 264.7 cells; assay: Cell viability (CellTiter 96 AQueous One) of LPS-challenged RAW 264.7 cells; assay type: cell-based, mouse; design: key: NS=not significant; a “+” sign=anti-inflammatory or increased cell numbers; a “−” sign=cell toxicity or pro-inflammatory
Summary of the method: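 RAW 264.7 murine macrophages pretreated 1 h with compound or DMSO vehicle, then challenged with LPS (serotype 055:B5) at 30 or 60 ng/mL final for 24 h. After media replacement, viability measured by tetrazolium (MTS) conversion, absorbance at 490 nm, reported as O.D.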

[7] = tested on: human saphenous vein sections (microvessel outgrowth); assay: Human saphenous vein assay of angiogenesis (ex vivo); assay type: cell-based; details: positive control, 10 days of incubation
Method: The saphenous vein was cleaned of subcutaneous tissue and embedded in Matrigel® matrix as previously described. After 10 days of incubation, the transverse sections of the veins were imaged. The outgrowth between the vehicle and no treatment (media) control was equivalent (106.65%±20.14, n=2 and 103.35%±4.06, n=2 respectively; FIGS. 13A and 13B).

| SMILES | effect on development / mortality of chicken embryos [1] | minimal effective concentration [2] [µg/mL] | mpo:GFP inflammation n (survived/tested) [2] | minimal effective concentration [3] [µg/mL] | fli1:EGFP angiogenesis n (survived/tested) [3] | TNF-α ([4]; 1 μM) | TNF-α ([4]; 10 μM) | TNF-α ([4]; 30 μM) | Nitrite ([5]; 1 μM) | Nitrite ([5]; 10 μM) | Nitrite ([5]; 30 μM) | Viability ([6]; 1 μM) | Viability ([6]; 10 μM) | Viability ([6]; 30 μM) | vessel outgrowth [7] |
| --- | --- | --- | --- | --- | --- | --- | --- | --- | --- | --- | --- | --- | --- | --- | --- |
| Nc1ccc2c(c1)C(=O)N(C1CCC(=O)NC1=O)C2=O (stereo not drawn) [Compound 11] | missing digits in the hindlimb; also recorded: limb reduction defect | 10 | 16/22 | 50 | 24/43 |  |  |  |  |  |  |  |  |  |  |
| O=C1c2cccc([N+](=O)[O-])c2CN1C12CC3CC(CC(C3)C1)C2 [Compound 76, 2,3-Dihydro-4-nitro-2-(tricyclo[3.3.1.1^3,7]dec-1-yl)-1H-isoindol-1-one] |  | 100 | 5/11 | 10 | 28/32 | NS | NS | + | NS | + | + | NS | NS | NS |  |
| CC(N1Cc2c(cccc2[N+](=O)[O-])C1=O)C12CC3CC(CC(C3)C1)C2 (stereo not drawn) [Compound 80] | microophthalmia (asterisk), limb reduction (white arrow), and hemorrhaging throughout the body |  |  |  |  | NS | + | + | NS | + | + | NS | − | NS |  |
| O=C1c2cccc([N+](=O)[O-])c2CN1C1C2CC3CC(C2)CC1C3 (stereo not drawn) [Compound 82] |  | 5 | 8/22 | 5 | 18/27 | NS | + | + | + | + | + | NS | − | − |  |
| Nc1cccc2c1CN(C1C3CC4CC(C3)CC1C4)C2=O (stereo not drawn) [Compound 83] |  | 20 | 6/23 | 20 | 3/12 | NS | NS | NS | NS | + | + | NS | NS | NS |  |
| O=C1c2cccc([N+](=O)[O-])c2CN1C12CC3CC(CC1C3)C2 [Compound 84] |  | 10 | 12/21 | 50 | 2/11 | NS | NS | NS | NS | + | + | NS | NS | NS |  |
| Nc1cccc2c1CN(C13CC4CC(CC1C4)C3)C2=O [Compound 85] |  | 100 | 11/20 | 10 | 7/20 | NS | NS | NS | NS | NS | − | NS | NS | NS |  |
| CO[C@@H]1[C@H](OC(=O)NC(=O)CCl)CC[C@]2(CO2)[C@H]1[C@@]1(C)O[C@@H]1CC=C(C)C [TNP-470, (Chloracetyl) carbamic acid (3R,4S,5S,6R)-5-methoxy-4-[(2R,3R)-2-methyl-3-(3-methyl-2-butenyl)oxiranyl]-1-oxaspiro[2.5]oct-6-yl ester, reference compound] |  |  |  |  |  |  |  |  |  |  |  |  |  |  | 9.44%±1.65 |

Reference: patent US11440880B2, “Thalidomide analogs and methods of use” (The USA, as represented by the Secretary, Department of …, priority 2015, dated 2022)
